According to patent US7132428B2, “Pyrazoloisoquinoline derivative as kinase inhibitors for the treatment of various disorders” (Aventis Pharmaceuticals Inc., priority 2003, dated 2006):

Experiments:
[1] = system: human peripheral blood lymphocytes; test: Cytotoxicity by LDH release, LPS-stimulated human peripheral blood lymphocytes; assay type: cell-based
Procedure: (§1) The pyrazoloisoquinoline derivatives according to the invention were tested for inhibitory activity against NIK in various in vitro assay systems. In this connection, human peripheral blood lymphocytes were preincubated for 1 h with different concentrations of the compounds and then stimulated for 24 h with LPS or IL1β. After that, a commercially obtainable ELISA test kit was used to measure the release of TNFα in the culture supernatant, and the IC50 for the given compound was determined. The cytotoxicity was measured by way of LDH release using a commercially obtainable test kit and the LD50 for the given compound was determined.

[2] = system: human peripheral blood lymphocytes; test: Cytotoxicity by LDH release, IL1β-stimulated human peripheral blood lymphocytes; assay type: cell-based
Procedure: as §1

Row | melting point [°C] | SMILES | Cytotoxicity LD50 [1] [µM] | Cytotoxicity LD50 [2] [µM]
1 | – | c1ccc(-c2nc3c(-c4ccccc4)n[nH]c3c3ccccc23)cc1 [Example 1, 3,5-Diphenyl-1H-pyrazolo[4,3-c]isoquinoline] | >100 | >100
2 | – | COc1cccc(-c2nc3c(C)n[nH]c3c3ccccc23)c1 [Example 2, 5-(3-Methoxyphenyl)-3-methyl-1H-pyrazolo[4,3-c]isoquinoline] | >100 | >100
3 | – | Cc1n[nH]c2c1nc(-c1cccc(O)c1)c1ccccc12 [Example 3, 3-(3-Methyl-1H-pyrazolo[4,3-c]isoquinolin-5-yl)phenol] | >100 | >100
4 | 250 to 251 | CCc1n[nH]c2c1nc(-c1ccccc1)c1ccccc12 [Example 46, 5-phenyl-3-ethyl-1H-pyrazolo[4,3-c]isoquinoline] | – | –
5 | 219 to 220 | CCc1n[nH]c2c1nc(-c1cccnc1)c1ccccc12 [Example 47, 3-Ethyl-5-(pyridin-3-yl)-1H-pyrazolo[4,3-c)isoquinoline] | – | –
6 | 299 to 300 | Cc1n[nH]c2c1nc(-c1ccccc1)c1cc(Br)ccc12 [Example 62, 7-Bromo-3-methyl-5-phenyl-1H-pyrazolo[4,3-c]isoquinoline] | – | –
7 | 264 to 265 | FC(F)(F)c1n[nH]c2c1nc(-c1ccccc1)c1ccccc12 [Example 75, 5-phenyl-3-trifluoromethyl-1H-pyrazolo[4,3-c]isoquinoline] | – | –
